From US9682976B2, “Protein kinase C inhibitors and uses thereof” (Rigel Pharmaceuticals, Inc., priority 2012, dated 2017)

What follows are compounds tested on PKC mediated IL-2 production (assay: IL-2 ELISA, human primary T cell, anti CD3+CD28+). Details: Homo sapiens, T-cell, 24 h, human primary T cells stimulated with αCD3 and αCD28, 24 hours.
Type: cell-based
Method in brief: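 Human peripheral blood T cells, pre-expanded with αCD3/αCD28 and IL-2 and then washed free of IL-2, were pre-incubated with compound for 1 h at 37° C. They were then stimulated on plates coated with […] αCD3 and 5 μg/ml αCD28, or with 0.5 ng/ml PMA plus 0.1 uM ionomycin in the counter assay. IL-2 in supernatants was measured by ELISA after 24 h.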

| Structure (SMILES) | EC50 |
| --- | --- |
| CC1(C)C[C@H](Nc2nc(Nc3ccc(OCCCO)c(C#N)c3)ncc2F)C[C@@H]2CCCN21 [Compound 213, 5-((4-(((7R,8aS)-5,5-dimethyloctahydroindolizin-7-yl)amino)-5-fluoropyrimidin-2-yl)amino)-2-(3-hydroxypropoxy)benzonitrile] | 100 to 500 nM |
| COc1cc(Nc2ncc(Cl)c(N[C@@H]3C[C@@H]4CCCN4C(C)(C)C3)n2)cc(OC)c1OC [Compound 183, 5-chloro-N4-((7R,8aS)-5,5-dimethyloctahydroindolizin-7-yl)-N2-(3,4,5-trimethoxyphenyl)pyrimidine-2,4-diamine] | 1000 to 10000 nM |
| Cc1ccc(Nc2ncc(Cl)c(N[C@@H]3C[C@@H]4CCCN4C(C)(C)C3)n2)cc1-n1cnnn1 [Compound 147, 5-chloro-N4-((7R,8aS)-5,5-dimethyloctahydroindolizin-7-yl)-N2-(4-methyl-3-(1H-tetrazol-1-yl)phenyl)pyrimidine-2,4-diamine] | < 100 nM |
| Fc1cc(C2CC2)c(-n2cnnn2)cc1Nc1ncc(F)c(NC2CCN3CCCC3C2)n1 (racemic) [Compound 24, (±)-N^2-(4-cyclopropyl-2-fluoro-5-(1H-tetrazol-1-yl)phenyl)-5-fluoro-n^4-(octahydroindolizin-7-yl)pyrimidine-2,4-diamine] | 100 to 500 nM |
| CC1(COc2ccc(Nc3ncc(F)c(N[C@@H]4C[C@@H]5CCCN5C(C)(C)C4)n3)cc2-n2cnnn2)COC1 [Compound 203, N4-((7R,8aS)-5,5-dimethyloctahydroindolizin-7-yl)-5-fluoro-N2-(4-((3-methyloxetan-3-yl)methoxy)-3-(1H-tetrazol-1-yl)phenyl)pyrimidine-2,4-diamine] | < 100 nM |
| CC(O)COc1ccc(Nc2ncc(Cl)c(N[C@@H]3C[C@@H]4CCCN4C(C)(C)C3)n2)cc1C#N (stereo partly drawn) [Compound 229, 5-((5-chloro-4-(((7R,8aS)-5,5-dimethyloctahydroindolizin-7-yl)amino)pyrimidin-2-yl)amino)-2-(2-hydroxypropoxy)benzonitrile] | 1000 to 10000 nM |
| COc1ccc(Nc2ncc(F)c(N[C@@H]3C[C@@H]4CCCN4C(C)(C)C3)n2)cc1-n1nnn(CCO)c1=O [Compound 280, 1-(5-(4-((7R,8aS)-octahydro-5,5-dimethylindolizin-7-ylamino)-5-fluoropyrimidin-2-ylamino)-2-methoxyphenyl)-4-(2-hydroxyethyl)-1H-tetrazol-5(4H)-one] | 500 to 1000 nM |
| CC1(C)C[C@H](Nc2nc(Nc3ccc(C4CC4)c(C#N)c3)ncc2Cl)C[C@@H]2CCCN21 [Compound 155, 5-((5-chloro-4-(((7R,8aS)-5,5-dimethyloctahydroindolizin-7-yl)amino)pyrimidin-2-yl)amino)-2-cyclopropylbenzonitrile] | < 100 nM |
| CC1(C)C[C@H](Nc2nc(Nc3ccc(O[C@@H]4CCNC[C@H]4F)c(C(F)(F)F)c3)ncc2F)C[C@@H]2CCCN21 [Compound 119] | < 100 nM |
| Cn1nnn(-c2cc(Nc3ncc(F)c(N[C@@H]4C[C@@H]5CCCN5C(C)(C)C4)n3)c(F)cc2OCC(O)CO)c1=O (stereo partly drawn) [Compound 199, 1-(2-(2,3-dihydroxypropoxy)-5-((4-(((7R,8aS)-5,5-dimethyloctahydroindolizin-7-yl)amino)-5-fluoropyrimidin-2-yl)amino)-4-fluorophenyl)-4-methyl-1,4-dihydro-5H-tetrazol-5-one] | 500 to 1000 nM |
| CC1(C)C[C@H](Nc2nc(Nc3ccc(OCCO)c(Cl)c3)ncc2F)C[C@@H]2CCCN21 [Compound 133, 2-(2-chloro-4-((4-(((7R,8aS)-5,5-dimethyloctahydroindolizin-7-yl)amino)-5-fluoropyrimidin-2-yl)amino)phenoxy)ethan-1-ol] | 100 to 500 nM |
| CC1(C)CC[C@H]2C[C@@H](Nc3nc(Nc4cc(-n5nnnc5C5COC5)c(C5CC5)cc4F)ncc3F)CCN21 [Compound 301, N2-(4-Cyclopropyl-2-fluoro-5-(5-(oxetan-3-yl)-1H-tetrazol-1-yl)phenyl)-N4-((7S,8aS)-3,3-dimethyloctahydroindolizin-7-yl)-5-fluoropyrimidine-2,4-diamine] | < 100 nM |
| Cc1ccc(Nc2ncc(F)c(N[C@@H]3C[C@@H]4CCCN4C(C)(C)C3)n2)cc1-n1nnn(C2COC2)c1=O [Compound 276, 1-(5-(4-((7R,8aS)-octahydro-5,5-dimethylindolizin-7-ylamino)-5-fluoropyrimidin-2-ylamino)-2-methylphenyl)-4-(oxetan-3-yl)-1H-tetrazol-5(4H)-one] | < 100 nM |
| CC1(C)C[C@@H](Nc2nc(Nc3cc(-n4cnnn4)c(C4CC4)cc3F)ncc2F)C[C@@H]2CC(F)(F)CN21 [Compound 43, N^2-(4-cyclopropyl-2-fluoro-5-(1H-tetrazol-1-yl)phenyl)-5-fluoro-N^4-((7S,8aR)-2,2-difluoro-octahydro-5,5-dimethylindolizin-7-yl)pyrimidine-2,4-diamine] | 1000 to 10000 nM |
| COCCOc1cc(F)c(Nc2ncc(F)c(N[C@@H]3C[C@@H]4CCCN4C(C)(C)C3)n2)cc1-n1nnn(C)c1=O [Compound 158, 1-(5-((4-(((7R,8aS)-5,5-dimethyloctahydroindolizin-7-yl)amino)-5-fluoropyrimidin-2-yl)amino)-4-fluoro-2-(2-methoxyethoxy)phenyl)-4-methyl-1,4-dihydro-5H-tetrazol-5-one] | 100 to 500 nM |
| CC1(C)C[C@H](Nc2nc(Nc3ccc(Br)c(C#N)c3)ncc2F)C[C@@H]2CCCN21 [Compound 180, 2-bromo-5-((4-(((7R,8aS)-5,5-dimethyloctahydroindolizin-7-yl)amino)-5-fluoropyrimidin-2-yl)amino)benzonitrile] | 100 to 500 nM |
| CC1(C)C[C@H](Nc2nc(Nc3cc(-n4cnnn4)c(C4CC4)cc3F)ncc2F)C[C@@H]2CCCN21 (racemic) [Compound 53, (±)-N^2-(4-cyclopropyl-2-fluoro-5-(1H-tetrazol-1-yl)phenyl)-5-fluoro-n^4-(octahydro-5,5-dimethylindolizin-7-yl)pyrimidine-2,4-diamine] | < 100 nM |
| COc1ccc(Nc2ncc(F)c(N[C@@H]3C[C@@H]4CCCN4C(C)(C)C3)n2)cc1-n1nnn(CC(C)(C)O)c1=O [Compound 290, 1-(5-(4-((7R,8aS)-octahydro-5,5-dimethylindolizin-7-ylamino)-5-fluoropyrimidin-2-ylamino)-2-methoxyphenyl)-4-(2-hydroxy-2-methylpropyl)-1H-tetrazol-5(4H)-one] | 100 to 500 nM |
| CC1(C)CC[C@H]2C[C@@H](Nc3nc(Nc4ccc(N5CC(O)C5)c(OC(F)F)c4)ncc3F)CCN21 [Compound 308, 1-(2-(Difluoromethoxy)-4-((4-(((7S,8aS)-3,3-dimethyloctahydroindolizin-7-yl)amino)-5-fluoropyrimidin-2-yl)amino)phenyl)azetidin-3-ol] | 500 to 1000 nM |
| CN(C)CCOc1cc(F)c(Nc2ncc(F)c(N[C@@H]3C[C@@H]4CCCN4C(C)(C)C3)n2)cc1-n1nnn(C)c1=O [Compound 192, 1-(2-(2-(dimethylamino)ethoxy)-5-((4-(((7R,8aS)-5,5-dimethyloctahydroindolizin-7-yl)amino)-5-fluoropyrimidin-2-yl)amino)-4-fluorophenyl)-4-methyl-1,4-dihydro-5H-tetrazol-5-one] | 100 to 500 nM |
| CC1(C)C[C@H](Nc2nc(Nc3ccc4c(c3)-n3nnnc3C3(COC3)O4)ncc2F)C[C@@H]2CCCN21 [Compound 126, N^4-((7R,8aS)-5,5-dimethyloctahydroindolizin-7-yl)-5-fluoro-N^2-(spiro[benzo[b]tetrazolo[1,5-d][1,4]oxazine-4,3′-oxetan]-8-yl)pyrimidine-2,4-diamine] | < 100 nM |
| CC1(C)C[C@H](Nc2nc(Nc3cccc(-n4nn[nH]c4=O)c3)ncc2F)C[C@@H]2CCCN21 [Compound 260, 1-(3-(4-((7R,8aS)-octahydro-5,5-dimethylindolizin-7-ylamino)-5-fluoropyrimidin-2-ylamino)phenyl)-1H-tetrazol-5(4H)-one] | > 10000 nM |
| CC1(C)C[C@H](Nc2nc(Nc3ccc(OCCO)c(-n4cnnn4)c3)ncc2Cl)C[C@@H]2CCCN21 [Compound 223, 2-(4-((5-chloro-4-(((7R,8aS)-5,5-dimethyloctahydroindolizin-7-yl)amino)pyrimidin-2-yl)amino)-2-(1H-tetrazol-1-yl)phenoxy)ethan-1-ol] | < 100 nM |
| Cn1nnn(-c2cc(Nc3ncc(F)c(N[C@@H]4C[C@@H]5CCCN5C(C)(C)C4)n3)c(F)cc2OC2CC(OCc3ccccc3)C2)c1=O (stereo partly drawn) [Compound 225, 1-(2-(3-(benzyloxy)cyclobutoxy)-5-((4-(((7R,8aS)-5,5-dimethyloctahydroindolizin-7-yl)amino)-5-fluoropyrimidin-2-yl)amino)-4-fluorophenyl)-4-methyl-1,4-dihydro-5H-tetrazol-5-one] | 100 to 500 nM |
| C[C@@H](O)COc1cc(F)c(Nc2ncc(C#N)c(N[C@@H]3C[C@@H]4CCCN4C(C)(C)C3)n2)cc1-n1nnn(C)c1=O [Compound 314, 4-((7R,8aS)-octahydro-5,5-dimethylindolizin-7-ylamino)-2-(4-((R)-2-hydroxypropoxy)-2-fluoro-5-(4,5-dihydro-4-methyl-5-oxotetrazol-1-yl)phenylamino)pyrimidine-5-carbonitrile] | 100 to 500 nM |
| COc1cc(Nc2ncc(F)c(N[C@@H]3C[C@@H]4CCCN4C(C)(C)C3)n2)cc(OC)c1OC [Compound 156, N4-((7R,8aS)-5,5-dimethyloctahydroindolizin-7-yl)-5-fluoro-N2-(3,4,5-trimethoxyphenyl)pyrimidine-2,4-diamine] | 1000 to 10000 nM |

Same assay, conditions: T-cell, human primary T cells stimulated with αCD3 and αCD28, 24 hours

| Structure (SMILES) | EC50 |
| --- | --- |
| CC1(C)C[C@H](N(CC(O)CO)c2nc(Nc3ccc(OCC(O)CO)c(C#N)c3)ncc2F)C[C@@H]2CCCN21 (some centres unmarked) [Compound 211] | 1000 to 10000 nM |

Same assay, conditions: human primary T cells stimulated with αCD3 and αCD28, 24 hours

| Structure (SMILES) | EC50 |
| --- | --- |
| C[C@@H](O)COc1cc(F)c(Nc2ncc(F)c(N[C@@H]3C[C@@H]4CCCN4C(C)(C)C3)n2)cc1-n1nnn(C)c1=O [Compound 82] | < 100 nM |
| Cc1ncc(Nc2ncc(F)c(NC3CC4CCCN4C(C)(C)C3)n2)cc1-n1nnnc1C (centres unmarked) [Compound 15] | 100 to 500 nM |
